Test results: patent US5821353A, “DNA encoding 1,3 beta-D glucan synthase subunits” (Merck & Co., Inc., priority 1996, dated 1998)

What was measured:
Assay type in all cases: cell-based, Saccharomyces cerevisiae
[1] = tested on: S. cerevisiae wild type YFK0005; experiment: MIC assay; settings: less than 10% growth of no-drug control, 42 hours, 28° C.
Experimental: (§1) The sensitivities of pcr1(fks2-1) fks1-1 and pcr1(fks2-1) FKS1 strains to L-733,560, L-636,947 (Aculeacin), and L-687,781 (Dihydropapulocandin) were determined in MIC assays. Briefly, strains were grown to stationary phase in 5.0 ml of liquid YPAD medium. MY2256 precultures were grown in liquid YPAD10Ca. MIC assays were performed in flat well microtiter plates in triplicate. Each well of the microtiter plate was filled with 100 mcL of YPAD medium. To the first well, 100 mcL of a 4× solution of drug in YPAD medium was added. To serve as a control, a stock solution of […] of YPAD was made. 100 mcL of this solution was added to the initial well for strains grown in the presence of solvent but the absence of drug. Two-fold serial dilutions of the drug were performed down the plate.
(§2) Cultures were diluted to 5×10^5 cells/ml in YPAD (1 OD660 =3.3×10^7 cells/ml). 100 mcL of diluted culture was added to each well, resuspended, and incubated at 28° C. After 42 hours, cultures were resuspended and cells densities measured in an SLT Laboratories 340 ATTC microtiter plate reader. The MICs concentrations presented in the table below represent the concentrations of drug that result in less than 10% growth of the strain grown in the absence of drug.

[2] = tested on: S. cerevisiae fks1-1 PCR1 YFK0688-14B; experiment: MIC assay; settings: less than 10% growth of no-drug control, 42 hours, 28° C.
Experimental: as §1, §2

[3] = tested on: S. cerevisiae FKS1 pcr1 (fks2-1): MY2257, MY2258; experiment: MIC assay; settings: less than 10% growth, 42 hours
Experimental: as §1, §2

[4] = tested on: S. cerevisiae fks1-1 pcr1 (fks2-1): MY2256, YFK0996-11B, MY2259, MY2260; experiment: MIC assay; settings: less than 10% growth, 42 hours
Experimental: as §1, §2

[5] = tested on: S. cerevisiae MY2144 (fks 1-3); experiment: MIC, growth inhibition; settings: MY2144 (fks 1-3)
Experimental: (§3) Liquid broth microdilution assay
(§4) To quantitate the sensitivity of a particular strain of S. cerevisiae to a compound such as FK506, L-733,560, or nikkomycin Z, the following procedure was followed:
(§5) Dissolve drug of interest at 4× the desired initial concentration. For L-733,560, a 64 mcg/ml solution in sterile SD is prepared. Aliquot 75 mcL of the drug suspension into column 3. Using a multichannel pipettor, transfer 75 mcL from column 3 into column 4, pipet up and down three times to mix, and then transfer 75 mcL from column 4 into column 5. Repeat the serial dilution until column 12 is reached; after mixing, discard 75 mcL to waste.
(§6) Inoculate each strain in a given row by adding 75 mcL of the inoculum into columns 2 to 12. […] Column 2 serves as the no-drug or 100% growth control. The plate is then incubated overnight at 30° C. without shaking.
(§7) After approximately 24 hours of incubation, gently agitate the plate to resuspend the cells and read the absorbance at 600 nm wavelength. The % control growth for any given well can be calculated by dividing the absorbance value for that well by the value from column 2 in the same row. If this is done for each column, the data can be plotted as "Percent control growth" vs. "Drug concentration". The resulting dose-response curve can be used to compare the drug sensitivities of various strains.
(§8) The data in the following table are the minimum concentration of the various drugs required to inhibit the growth of each the mutants and their parent X2180-1A.

S. cerevisiae MY2145 = experiment: MIC, growth inhibition; settings: MY2145
Experimental: as §3, §4, §5, §6, §7, §8

S. cerevisiae X2180-1A = experiment: MIC, growth inhibition; settings: minimum concentration required to inhibit growth
Experimental: as §3, §4, §5, §6, §7, §8

[6] = tested on: S. cerevisiae R560-1 / R560-1C (fks1-2); experiment: liquid MIC assay of resistant clone
Experimental: Strain W303-1A was transformed by the spheroplast method (MYG) with yeast genomic libraries obtained from D. Botstein (1982. Cell, 28:145-154). Transformants selected on uracil dropout medium were pooled and stored at -80° C. in 20% glycerol. After determining the titer (colony forming units(CFU)/ml), aliquots of the stocks were spread at .congruent.5×10^3 CFU per plate onto uracil dropout medium containing the semisynthetic echinocandin L-733,560 at 0.5 mcg/ml or 1.25 mcg/ml. This concentration of L-733,560 is sufficient to select for resistant clones. Twenty-seven drug resistant colonies were isolated. […] Briefly, L-733,560 was serially diluted across the wells of a sterile microtiter plate such that the concentration in each row ranged from 16 to 0.03 mcg/ml in 2-fold increments after an equal volume of a cell suspension in liquid uracil dropout medium was added. After 24 h at 30° C., plates were read in a spectrophotometer at a wavelength of 600 nm, and the percent of control growth in each well (relative to a no-drug control well) was calculated. […]
Because this strain was isolated as a transfornant from the genomic library, it was expected that resistance would be due to the gene residing on the plasmid contained in R560-1. […] R560-1C was mated to the wild type strain W303-1B, sporulated, dissected, and the sensitivity to L-733,560 quantitated by liquid MIC assay. […]

dihydropapulacandin [L-687,781]
MIC [1]: 40 µg/mL
MIC [2]: 10 µg/mL
MIC [3]: > 40 µg/mL
MIC [4]: > 40 µg/mL
MIC [5]: 15 µg/mL
MIC (S. cerevisiae MY2145): 5.5 µg/mL
MIC (S. cerevisiae X2180-1A): 5.5 µg/mL
resistance phenotype in liquid MIC assay [6]: resistance phenotype
